In PMC12699471 (RSC Advances, 2025):
Entries after “also recorded” stand apart in the source; their conditions may differ.

Columns and labels:
Type in all cases: cell-based, human
MCF-7 cells [1] = assay: MTT cell viability assay, MCF-7 cells
MDA-MB-231 cells = assay: MTT cell viability assay, MDA-MB-231 cells; conditions: for cell survival: MDA-MB-231 cells, 100 µM, 48 h, MTT
MCF-7 cells [2] = assay: Microscopic analysis of cell morphology, MCF-7 cells; conditions: 48 h treatment; for cell morphology / cell death under the microscope: 10× magnification

SMILES | IC50 (MCF-7 cells [1]; Homo sapiens, MCF7) [µM] | cell survival (MCF-7 cells [1]; MCF-7 cells, 100 µM, 48 h, MTT) [%] | IC50 (MDA-MB-231 cells; Homo sapiens, MDA-MB-231) [µM] | cell survival (MDA-MB-231 cells) [%] | breast cancer cell inhibitory activity as concluded from microscopy (MCF-7 cells [2]) | cell morphology / cell death under the microscope (MCF-7 cells [2])
CCOC(=O)C1=C(COCc2cn(CCN3C(=O)C(=O)c4ccccc43)nn2)N=C2SC=CN2C1c1cccc(Cl)c1 (centres unmarked) [Compound 14a] | 81.9 ± 2.26 | ~52 | 42.3 ± 0.83 | 58 | highest breast cancer cell inhibitory activity | mostly dead
CCOC(=O)C1=C(COCc2cn(CCN3C(=O)C(=O)c4cc(Cl)ccc43)nn2)N=C2SC=CN2C1c1cccc(Cl)c1 (centres unmarked) [Compound 14c] |  |  |  |  | highest breast cancer cell inhibitory activity | significant changes in their morphology; also recorded: mostly dead
CCOC(=O)C1=C(COCc2cn(CCN3C(=O)C(=O)c4cc(F)ccc43)nn2)N=C2SC=CN2C1c1cccc(Cl)c1 (centres unmarked) [Compound 14d] |  |  |  |  | not showing breast cancer cell growth inhibition | significant changes in their morphology
CCOC(=O)C1=C(COCc2cn(C3OC(COC(C)=O)C(OC(C)=O)C(OC(C)=O)C3OC(C)=O)nn2)N=C2SC=CN2C1c1cccc(Cl)c1 (centres unmarked) [Compound 15] |  |  |  |  | highest breast cancer cell inhibitory activity | mostly dead
CC/C(=C(\c1ccccc1)c1ccc(OCCN(C)C)cc1)c1ccccc1 [Tamoxifen, tamoxifen, reference compound] |  |  |  | 63 |  | significant changes in their morphology; also recorded: mostly dead
